According to patent US20150005348A1, “AMIDE COMPOUND AND USE THEREOF FOR PEST CONTROL” (SUMITOMO CHEMICAL COMPANY, LIMITED, priority 2012, published 2015):

Each compound was assayed on last instar larvae of common house mosquitos (Culexpipienspallens) (assay: Larval mortality test on common house mosquitos in treated water (Test Example 5)). Settings: Culicidae, 192 h; active ingredient 3.5 ppm in ion-exchanged water; 20 last instar larvae; observed after 8 days.
Assay type: in vivo
Experimental: Each of the formulations of Compounds (4), (5), (11) and (12) of the present invention obtained in Formulation Example 15 was diluted with water, so as to have a concentration of active ingredient of 500 ppm, to prepare a test drug solution.
0.7 ml of the test drug solution was added to 100 ml of ion-exchanged water (a concentration of active ingredient of 3.5 ppm).

| SMILES | mortality at 3.5 ppm |
| --- | --- |
| O=C(/C=C/CCCCCCc1ccccc1)NCC1CCOC1 (stereo not shown) [Compound (4), (E)-N-(tetrahydrofuran-3-ylmethyl)-9-phenyl-2-noneneamide] | ≥ 95% |
| O=C(/C=C/CCCCCCCc1ccccc1)NCC1CCOC1 (stereo not shown) [Compound (5), (E)-N-(tetrahydrofuran-3-ylmethyl)-10-phenyl-2-deceneamide] | ≥ 95% |
| O=C(/C=C/CCCCCCc1ccccc1)NCC1CCOCC1 [Compound (11), (E)-N-(tetrahydropyran-4-ylmethyl)-9-phenyl-2-noneneamide] | ≥ 95% |
| C/C(=C\C(=O)NCC1CCOCC1)CCCc1ccccc1 [Compound (12), (E)-N-(tetrahydropyran-4-ylmethyl)-3-methyl-6-phenyl-2-hexeneamide] | ≥ 95% |
